The source made the active and inactive calls. No cut-off for these calls is given here.
Key:
[1] = Stimulation of GST in Mus musculus (mouse) liver using CDNB as substrate at 100 uM after 10 min by spectrophotometric analysis relative to control; format: ADME, tissue-based
[2] = system: Brugia malayi; assay: Antifilarial activity against Brugia malayi isolated from jird assessed as motility at 100 uM after 24 hr by dissecting microscopy; format: functional, organism-based
[3] = system: GST (glutathione S-transferase); assay: Inhibition of GST in Mus musculus (mouse) liver using CDNB as substrate at 100 uM after 10 min by spectrophotometric analysis relative to control; format: tissue-based; details: probe CDNB
[4] = system: Brugia malayi; assay: Antifilarial activity against Brugia malayi isolated from jird assessed as inhibition of MTT reduction at 100 uM after 1 hr; format: functional

What does the source list for CCOC(=O)CC(NC(=O)[C@@H]1CCCN1)C1O[C@H]2OC(C)(C)O[C@H]2[C@@H]1OC (stereo not given in full)?
Activity [1]: 28%; Activity [2]: Active

Which results are given for CCCCN1C(=S)N(c2cccc(Cl)c2)C(=O)CC1[C@H]1O[C@@H]2OC(C)(C)O[C@@H]2[C@H]1OC (stereo not given in full)?
Activity [1]: 21%; Activity [2]: Active

For CO[C@@H]1[C@H]2OC(C)(C)O[C@H]2O[C@@H]1C1CC(=O)N(c2cccc(C#N)c2)C(=O)N1Cc1ccc(Br)cc1 (stereo not given in full), which inhibition at 10 min, 100 µM [3] is on record?
The inhibition at 10 min, 100 µM was 19%.

And the inhibition at 100 µM [4]?
The inhibition at 100 µM was 37%.

What about the Activity [2] of the same compound?
The Activity was “inactive”.

With CO[C@@H]1[C@H]2OC(C)(C)O[C@H]2O[C@@H]1C1CC(=O)N(c2ccc(Br)cc2)C(=O)N1c1ccco1 (stereo not given in full) as the compound, how does the inhibition at 10 min, 100 µM [3] read?
Its inhibition at 10 min, 100 µM is 32%.

What about the inhibition at 100 µM [4] of the same compound?
Its inhibition at 100 µM is 32%.

And the Activity [2]?
Its Activity is “inactive”.

Which results are given for CCCCCCCCCCCCCCCCNC(CC(=O)NO)C1O[C@H]2OC(C)(C)O[C@H]2[C@@H]1OC (stereo not given in full)?
Activity [1]: 214%; inhibition at 100 µM [4]: 92%; Activity [2]: Active

For CO[C@@H]1[C@H]2OC(C)(C)O[C@H]2O[C@@H]1C1CC(=O)N(Cc2ccccc2)C(=O)N1Cc1ccc(Br)cc1 (stereo not given in full), which Activity [1] is on record?
Its Activity is 41%.

What about the Activity [2] of the same compound?
The Activity was “Active”.

For CO[C@@H]1[C@H]2OC(C)(C)O[C@H]2O[C@@H]1C1CC(=O)N(Cc2ccccc2)C(=O)N1Cc1ccccc1 (stereo not given in full), which Activity [2] is on record?
Its Activity is “inactive”.

For CCOC(=O)CC(NC(=O)[C@@H](N)C(C)C)C1O[C@H]2OC(C)(C)O[C@H]2[C@@H]1OC (stereo not given in full), which Activity [1] is on record?
The Activity was 20%.

And the Activity [2]?
The Activity was “Active”.

With CCCCN1C(=S)N(c2ccccc2Cl)C(=O)CC1[C@H]1O[C@@H]2OC(C)(C)O[C@@H]2[C@H]1OC (stereo not given in full) as the compound, how does the Activity [1] read?
The Activity was 64%.

What about the Activity [2] of the same compound?
The Activity was “inactive”.

Which Activity [2] does the source give for CCOC(=O)CC(NCCCCCCCNC(CC(=O)OCC)C1O[C@@H]2OC(C)(C)O[C@@H]2[C@H]1OCc1ccccc1)C1O[C@H]2OC(C)(C)O[C@H]2[C@@H]1OCc1ccccc1 (stereo not given in full) here?
The Activity was “Active”.

For CO[C@@H]1[C@H]2OC(C)(C)O[C@H]2O[C@@H]1C1CC(=O)N(c2cccc(C#N)c2)C(=O)N1Cc1ccccc1 (stereo not given in full), which inhibition at 10 min, 100 µM [3] is on record?
The inhibition at 10 min, 100 µM was 32%.

What about the Activity [2] of the same compound?
Its Activity is “inactive”.

Which results are given for CCCCCCCCCCCCNC(CC(=O)NO)C1O[C@H]2OC(C)(C)O[C@H]2[C@@H]1OCc1ccccc1 (stereo not given in full)?
Activity [1]: 57%; inhibition at 100 µM [4]: 98%; Activity [2]: Active

Which inhibition at 10 min, 100 µM [3] does the source give for CCOC(=O)CC(C1O[C@H]2OC(C)(C)O[C@H]2[C@@H]1OC)N(Cc1ccccc1O)C(=O)Nc1cccc(C(C)=O)c1 (stereo not given in full) here?
The inhibition at 10 min, 100 µM was 23%.

And the inhibition at 100 µM [4]?
Its inhibition at 100 µM is 41%.

What about the Activity [2] of the same compound?
Its Activity is “Active”.

Which inhibition at 100 µM [4] does the source give for CO[C@@H]1[C@H]2OC(C)(C)O[C@H]2O[C@@H]1C1CC(=O)N(c2ccc(Cl)c(C)c2)C(=O)N1Cc1ccc(Br)cc1 (stereo not given in full) here?
Its inhibition at 100 µM is 45%.

And the Activity [2]?
The Activity was “inactive”.

For CO[C@@H]1C(C(CC(N)=O)N(C(=O)Nc2ccccc2C)C(CC(N)=O)C2O[C@@H]3OC(C)(C)O[C@@H]3[C@H]2OC)O[C@H]2OC(C)(C)O[C@H]21 (stereo not given in full), which inhibition at 100 µM [4] is on record?
The inhibition at 100 µM was 20%.

What about the Activity [2] of the same compound?
The Activity was “inactive”.

For CC1(C)O[C@H]2O[C@H](C3CC(=O)N(Cc4ccccc4)C(=O)N3Cc3ccccc3)[C@H](OCc3ccccc3)[C@H]2O1 (stereo not given in full), which Activity [1] is on record?
The Activity was 13%.

And the inhibition at 100 µM [4]?
Its inhibition at 100 µM is 65%.

And the Activity [2]?
Its Activity is “inactive”.

With CO[C@@H]1C(C(CC(N)=O)NC(=O)Nc2ccc(C)c(Cl)c2)O[C@H]2OC(C)(C)O[C@H]21 (stereo not given in full) as the compound, how does the Activity [2] read?
Its Activity is “inactive”.

Which Activity [2] does the source give for COc1ccc(N(C(=O)NCc2ccccc2)[C@@H](CC(=O)O)C(=O)NC(CC(N)=O)C2O[C@H]3OC(C)(C)O[C@H]3[C@@H]2OC)cc1 (stereo not given in full) here?
Its Activity is “inactive”.

For COc1ccc(CN2C(=O)N(c3cccc(C(C)=O)c3)C(=O)CC2[C@H]2O[C@@H]3OC(C)(C)O[C@@H]3[C@H]2OCc2ccccc2)cc1 (stereo not given in full), which Activity [1] is on record?
The Activity was 13%.

What about the Activity [2] of the same compound?
The Activity was “inactive”.

With CC[C@H](C)[C@@H](C(=O)NC(CC(N)=O)C1O[C@H]2OC(C)(C)O[C@H]2[C@@H]1OC)N(C(=O)Nc1ccccc1C)c1ccco1 (stereo not given in full) as the compound, how does the Activity [2] read?
Its Activity is “Active”.

With CO[C@@H]1[C@H]2OC(C)(C)O[C@H]2O[C@@H]1C1CC(=O)N(c2ccc(Cl)cc2)C(=O)N1 (stereo not given in full) as the compound, how does the Activity [1] read?
The Activity was 24%.

And the inhibition at 100 µM [4]?
The inhibition at 100 µM was 52%.

What about the Activity [2] of the same compound?
Its Activity is “inactive”.

What does the source list for CO[C@@H]1[C@H]2OC(C)(C)O[C@H]2O[C@@H]1C1CC(=O)N(c2cccc(C(C)=O)c2)C(=O)N1Cc1ccc(Br)cc1 (stereo not given in full)?
inhibition at 10 min, 100 µM [3]: 27%; Activity [2]: inactive

With COc1ccc(CN2C(=O)N(c3cccc(C#N)c3)C(=O)CC2[C@H]2O[C@@H]3OC(C)(C)O[C@@H]3[C@H]2OC)cc1 (stereo not given in full) as the compound, how does the inhibition at 10 min, 100 µM [3] read?
The inhibition at 10 min, 100 µM was 20%.

What about the inhibition at 100 µM [4] of the same compound?
Its inhibition at 100 µM is 34%.

What about the Activity [2] of the same compound?
The Activity was “inactive”.

Which Activity [2] does the source give for CC1(C)O[C@@H]2OC(CNCCCCCCCNCC3O[C@@H]4OC(C)(C)O[C@@H]4[C@H]3OCc3ccccc3)[C@@H](OCc3ccccc3)[C@@H]2O1 (stereo not given in full) here?
Its Activity is “inactive”.

For CCCCN(C(=S)Nc1ccccc1Cl)C(CC(=O)OCC)C1O[C@H]2OC(C)(C)O[C@H]2[C@@H]1OC (stereo not given in full), which Activity [1] is on record?
Its Activity is 38%.

And the Activity [2]?
Its Activity is “Active”.

Which inhibition at 10 min, 100 µM [3] does the source give for CCOc1ccc(N2C(=O)CC([C@H]3O[C@@H]4OC(C)(C)O[C@@H]4[C@H]3OC)N(c3ccco3)C2=O)cc1 (stereo not given in full) here?
Its inhibition at 10 min, 100 µM is 26%.

And the inhibition at 100 µM [4]?
Its inhibition at 100 µM is 34%.

And the Activity [2]?
The Activity was “inactive”.

What does the source list for CCCCc1ccc(N2C(=O)CC([C@H]3O[C@@H]4OC(C)(C)O[C@@H]4[C@H]3OC)N(Cc3ccccc3)C2=O)cc1 (stereo not given in full)?
inhibition at 10 min, 100 µM [3]: 13%; inhibition at 100 µM [4]: 76%; Activity [2]: inactive

For Cc1cc(N2C(=O)CC([C@H]3O[C@@H]4OC(C)(C)O[C@@H]4[C@H]3OCc3ccccc3)N(Cc3ccc(Br)cc3)C2=O)ccc1Cl (stereo not given in full), which Activity [2] is on record?
Its Activity is “Active”.

For CCOC(=O)CC(NC(=O)[C@@H]1CCCN1C(=O)OCC1c2ccccc2-c2ccccc21)C1O[C@H]2OC(C)(C)O[C@H]2[C@@H]1OC (stereo not given in full), which Activity [1] is on record?
The Activity was 197%.

What about the inhibition at 100 µM [4] of the same compound?
Its inhibition at 100 µM is 37%.

And the Activity [2]?
The Activity was “Active”.

For CCOc1ccc(N2C(=O)CC([C@H]3O[C@@H]4OC(C)(C)O[C@@H]4[C@H]3OC)N(Cc3ccccc3)C2=O)cc1 (stereo not given in full), which inhibition at 100 µM [4] is on record?
The inhibition at 100 µM was 50%.

And the Activity [2]?
The Activity was “inactive”.

With COc1ccc(CN2C(=O)N(c3cccc(C(C)=O)c3)C(=O)CC2[C@H]2O[C@@H]3OC(C)(C)O[C@@H]3[C@H]2OC)cc1 (stereo not given in full) as the compound, how does the inhibition at 10 min, 100 µM [3] read?
Its inhibition at 10 min, 100 µM is 41%.

What about the inhibition at 100 µM [4] of the same compound?
The inhibition at 100 µM was 59%.

What about the Activity [2] of the same compound?
The Activity was “inactive”.

For CO[C@@H]1[C@H]2OC(C)(C)O[C@H]2O[C@@H]1C1CC(=O)N(c2ccc(F)cc2)C(=O)N1c1ccco1 (stereo not given in full), which inhibition at 100 µM [4] is on record?
Its inhibition at 100 µM is 70%.

And the Activity [2]?
The Activity was “inactive”.

For CC1(C)O[C@H]2O[C@H](C3CC(=O)N(Cc4ccccc4)C(=O)N3Cc3ccc(Br)cc3)[C@H](OCc3ccccc3)[C@H]2O1 (stereo not given in full), which inhibition at 100 µM [4] is on record?
The inhibition at 100 µM was 24%.

And the Activity [2]?
Its Activity is “inactive”.

For CCOC(=O)CC(NCCCCCCCCCCCCNC(CC(=O)OCC)C1O[C@@H]2OC(C)(C)O[C@@H]2[C@H]1OCc1ccccc1)C1O[C@H]2OC(C)(C)O[C@H]2[C@@H]1OCc1ccccc1 (stereo not given in full), which Activity [2] is on record?
The Activity was “inactive”.

What does the source list for CCCCc1ccc(N2C(=O)CC([C@H]3O[C@@H]4OC(C)(C)O[C@@H]4[C@H]3OC)N(c3ccco3)C2=O)cc1 (stereo not given in full)?
inhibition at 100 µM [4]: 57%; Activity [2]: inactive

For CC1(C)O[C@@H]2OC(CNCCCCCCCCCCCCNCC3O[C@@H]4OC(C)(C)O[C@@H]4[C@H]3OCc3ccccc3)[C@@H](OCc3ccccc3)[C@@H]2O1 (stereo not given in full), which inhibition at 100 µM [4] is on record?
The inhibition at 100 µM was 94%.

And the Activity [2]?
Its Activity is “Active”.

With COc1ccc(CN2C(=O)N(c3cc(Cl)cc(Cl)c3)C(=O)CC2[C@H]2O[C@@H]3OC(C)(C)O[C@@H]3[C@H]2OCc2ccccc2)cc1 (stereo not given in full) as the compound, how does the Activity [1] read?
Its Activity is 12%.

And the inhibition at 100 µM [4]?
The inhibition at 100 µM was 92%.

And the Activity [2]?
Its Activity is “inactive”.

Which inhibition at 100 µM [4] does the source give for COC(=O)CC(NC(=S)Nc1ccccc1)C1O[C@H]2OC(C)(C)O[C@H]2[C@@H]1OCc1ccccc1 (stereo not given in full) here?
Its inhibition at 100 µM is 69%.

What about the Activity [2] of the same compound?
Its Activity is “Active”.

Which results are given for CC(=O)c1ccc(N2C(=O)CC([C@H]3O[C@@H]4OC(C)(C)O[C@@H]4[C@H]3OCc3ccccc3)NC2=O)cc1 (stereo not given in full)?
Activity [1]: 19%; inhibition at 100 µM [4]: 27%; Activity [2]: Active

With COc1ccc(CN2C(=O)N(Cc3ccccc3)C(=O)CC2[C@H]2O[C@@H]3OC(C)(C)O[C@@H]3[C@H]2OCc2ccccc2)cc1 (stereo not given in full) as the compound, how does the Activity [2] read?
Its Activity is “inactive”.

From ChEMBL document CHEMBL3046834, “MODULATION OF FILARIAL GLUTATHIONE-S-TRANSFERASE(S) ACTIVITY: A POSSIBILITY TOWARDS THE SYNTHESIS OF NEW CLASSES OF ANTIFILARIAL AGENTS” (Med Chem Res, 2004)
